# Reference: PMC9848300, “Discovery of novel enasidenib analogues targeting inhibition of mutant isocitrate dehydrogenase 2 as antileukaemic agents” (Journal of Enzyme Inhibition and Medicinal Chemistry, 2023)
# Read-outs that look alike come from different tables or passages of the source.
# Key:
# Assay type in all cases: cell-based
# K-562 = assay: NCI 60 antitumor screening (single dose / five doses); settings: Homo sapiens
# SR = assay: as above; settings: Homo sapiens, read-out: Growth inhibition percentage (GI %)
# EKVX = assay: as above; settings: Homo sapiens, read-out: Growth inhibition percentage (GI %)
# HCC-2998 = assay: NCI 60 antitumor screening (single dose); settings: Homo sapiens; HCC-2998 (colon cancer), single dose 10 μM; read-out: Growth inhibition percentage (GI %)
# Method: (§1) Initially, the anticancer effects of target compounds have been assessed at a single (10 μM) dose. The obtained data have been reported as mean-graph of the percent growth (G%) of the treated cancer cells. Percentage growth inhibition (GI%) is calculated (100 − G%) and pronounced in Table 1. […] Target compounds in series (III) with manipulated linkers disclosed lower potency. Superiorly, eight s-triazine derivatives from the three series (6a, 6c, 6d, 7a, 7g, 7i, 7l, and 8b) have shown potent broad-spectrum anticancer activity against most the examined cell lines, whereas most of the remaining triazine derivatives, 20 derivatives, have exerted selective anti-proliferative actions towards certain cancer cell lines (Supplementary).
# (§2) The antitumor screening was performed for 60 human cancer cell lines under the protocol of NCI (www.dtp.nci.nih.gov), the Drug Evaluation Branch, Bethesda, MD. All submitted compounds were nominated based on the degree of structural diversity and computer modelling techniques for evaluation of their anticancer activity. The screening process for antineoplastic activity passes through two successive levels, starting with the assessment of target compounds at a single dose of 10 μM against 60 cancer cell lines on nine types of human tumours. These experiments were done on a triplicate following. The output from the single‐dose screening was covered as a mean graph, and then, analysed by the COMPARE program. Finally, the compounds which disclosed subpanel cancer cell growth (G %) equal to or less than 10% in at least eight cancer cell lines get to pass the assessment against the 60 cell lines at five doses (0.01–100 μM). By using GraphPad Prism version 9.0 (Graphpad Software Inc., La Jolla, CA), GI50, TGI, as well as LC50 dose‐response parameters were computed and presented for each compound (Supplementary information)[55–57].
# HOP-62 = assay: NCI 60 antitumor screening (single dose); settings: Homo sapiens; HOP-62 (non-small cell lung cancer), single dose 10 μM; read-out: Growth inhibition percentage (GI %)
# Method: as §1, §2
# HS 578T = assay: NCI 60 antitumor screening (single dose); settings: Homo sapiens, read-out: Growth inhibition percentage (GI %)
# Method: as §1, §2
# KM 12 = assay: NCI 60 antitumor screening (single dose); settings: Homo sapiens, KM12; KM 12 (colon cancer), single dose 10 μM; read-out: Growth inhibition percentage (GI %)
# Method: as §1, §2
# NCI-H226 = assay: NCI 60 antitumor screening (single dose); settings: Homo sapiens; NCI-H226 (non-small cell lung cancer), single dose 10 μM; read-out: Growth inhibition percentage (GI %)
# Method: as §1, §2
# NCI-H460 = assay: NCI 60 antitumor screening (single dose); settings: Homo sapiens; NCI-H460 (non-small cell lung cancer), single dose 10 μM; read-out: Growth inhibition percentage (GI %)
# Method: as §1, §2
# OVCAR-3 = assay: NCI 60 antitumor screening (single dose); settings: Homo sapiens
# Method: as §1, §2
# OVCAR-4 = assay: NCI 60 antitumor screening (single dose); settings: Homo sapiens
# Method: as §1, §2
# OVCAR-5 = assay: NCI 60 antitumor screening (single dose); settings: Homo sapiens
# Method: as §1, §2
# OVCAR-8 = assay: NCI 60 antitumor screening (single dose); settings: Homo sapiens
# Method: as §1, §2
# PC-3 = assay: NCI 60 antitumor screening (single dose); settings: Homo sapiens
# Method: as §1, §2
# SK-OV-3 = assay: NCI 60 antitumor screening (single dose); settings: Homo sapiens
# Method: as §1, §2
# SNB-19 = assay: NCI 60 antitumor screening (single dose); settings: Homo sapiens; SNB-19 (CNS cancer), single dose 10 μM; read-out: Growth inhibition percentage (GI %)
# Method: as §1, §2
# TK-10 = assay: NCI 60 antitumor screening (single dose); settings: Homo sapiens
# Method: as §1, §2
# U251 = assay: NCI 60 antitumor screening (single dose); settings: Homo sapiens, U-251; U251 (CNS cancer), single dose 10 μM; read-out: Growth inhibition percentage (GI %)
# Method: as §1, §2
# COLO 205 = assay: NCI 60 antitumor screening (single dose / five doses); settings: Homo sapiens
# HCT-116 = assay: as above; settings: Homo sapiens
# SF-295 = assay: as above; settings: Homo sapiens
# LOX IMVI = assay: as above; settings: Homo sapiens, read-out: Growth inhibition percentage (GI %)
# SK-MEL-2 = assay: as above; settings: Homo sapiens
# UACC-257 = assay: as above; settings: Homo sapiens
# IGROV1 = assay: as above; settings: Homo sapiens
# ACHN = assay: as above; settings: Homo sapiens, read-out: Growth inhibition percentage (GI %)
# SN 12C = assay: as above; settings: Homo sapiens, SN12C, read-out: Growth inhibition percentage (GI %)
# T-47D = assay: as above; settings: Homo sapiens, T47D, read-out: Growth inhibition percentage (GI %)
# [1] = K562, K-562 (leukaemia), single dose 10 μM, read-out: Growth inhibition percentage (GI %)
# [2] = SR (leukaemia), single dose 10 μM
# [3] = EKVX (non-small cell lung cancer), single dose 10 μM
# [4] = HS 578T (breast cancer), single dose 10 μM
# [5] = OVCAR-3 (ovarian cancer), single dose 10 μM, read-out: Growth inhibition percentage (GI %)
# [6] = OVCAR-4 (ovarian cancer), single dose 10 μM, read-out: Growth inhibition percentage (GI %)
# [7] = OVCAR-5 (ovarian cancer), single dose 10 μM, read-out: Growth inhibition percentage (GI %)
# [8] = OVCAR-8 (ovarian cancer), single dose 10 μM, read-out: Growth inhibition percentage (GI %)
# [9] = PC-3 (prostate cancer), single dose 10 μM, read-out: Growth inhibition percentage (GI %)
# [10] = SK-OV-3 (ovarian cancer), single dose 10 μM, read-out: Growth inhibition percentage (GI %)
# [11] = TK-10 (renal cancer), single dose 10 μM, read-out: Growth inhibition percentage (GI %)
# [12] = COLO 205 (colon cancer), single dose 10 μM, read-out: Growth inhibition percentage (GI %)
# [13] = HCT-116 (colon cancer), single dose 10 μM, read-out: Growth inhibition percentage (GI %)
# [14] = SF-295 (CNS cancer), single dose 10 μM, read-out: Growth inhibition percentage (GI %)
# [15] = LOX IMVI (melanoma), single dose 10 μM
# [16] = SK-MEL-2 (melanoma), single dose 10 μM, read-out: Growth inhibition percentage (GI %)
# [17] = UACC-257 (melanoma), single dose 10 μM, read-out: Growth inhibition percentage (GI %)
# [18] = IGROV-1, IGROV1 (ovarian cancer), single dose 10 μM, read-out: Growth inhibition percentage (GI %)
# [19] = ACHN (renal cancer), single dose 10 μM
# [20] = SN 12C (renal cancer), single dose 10 μM
# [21] = T-47D (breast cancer), single dose 10 μM
smiles,measurement,setting,value
"O=[N+]([O-])c1cccc(/C=N/Nc2nc(N/N=C/c3cccc([N+](=O)[O-])c3)nc(N3CCOCC3)n2)c1 [compound 6f, 2-(Morpholin-4-yl)-4,6-bis[(E)-2-[(3-nitrophenyl)methylidene]hydrazin-1-yl]-1,3,5-triazine]",inhibition at 10 µM,"K-562; K562, read-out: Growth inhibition percentage (GI %)",63.3%
same,inhibition at 10 µM,SR; SR,66%
same,inhibition at 10 µM,EKVX; EKVX,11%
same,inhibition at 10 µM,HCC-2998,-2.57%
same,inhibition at 10 µM,HOP-62,26.4%
same,inhibition at 10 µM,HS 578T; Hs-578T,16.7%
same,inhibition at 10 µM,KM 12,15%
same,inhibition at 10 µM,NCI-H226,26.4%
same,inhibition at 10 µM,NCI-H460,17%
same,inhibition at 10 µM,"OVCAR-3; OVCAR-3, read-out: Growth inhibition percentage (GI %)",19%
same,inhibition at 10 µM,"OVCAR-4; OVCAR-4, read-out: Growth inhibition percentage (GI %)",18.4%
same,inhibition at 10 µM,"OVCAR-5; OVCAR-5, read-out: Growth inhibition percentage (GI %)",-17%
same,inhibition at 10 µM,"OVCAR-8; OVCAR-8, read-out: Growth inhibition percentage (GI %)",39.9%
same,inhibition at 10 µM,"PC-3; PC-3, read-out: Growth inhibition percentage (GI %)",37.9%
same,inhibition at 10 µM,"SK-OV-3; SK-OV-3, read-out: Growth inhibition percentage (GI %)",-29%
same,inhibition at 10 µM,SNB-19,4.49%
same,inhibition at 10 µM,"TK-10; TK-10, read-out: Growth inhibition percentage (GI %)",-45.7%
same,inhibition at 10 µM,U251,17.2%
same,inhibition at 10 µM,"COLO 205; COLO 205, read-out: Growth inhibition percentage (GI %)",44.2%
same,inhibition at 10 µM,"HCT-116; HCT-116, read-out: Growth inhibition percentage (GI %)",35.6%
same,inhibition at 10 µM,"SF-295; SF-295, read-out: Growth inhibition percentage (GI %)",13.7%
same,inhibition at 10 µM,LOX IMVI; LOX IMVI,39.5%
same,inhibition at 10 µM,"SK-MEL-2; SK-MEL-2, read-out: Growth inhibition percentage (GI %)",4.93%
same,inhibition at 10 µM,"UACC-257; UACC-257, read-out: Growth inhibition percentage (GI %)",9.17%
same,inhibition at 10 µM,"IGROV1; IGROV-1, read-out: Growth inhibition percentage (GI %)",42.6%
same,inhibition at 10 µM,ACHN; ACHN,30.2%
same,inhibition at 10 µM,SN 12C,24.4%
same,inhibition at 10 µM,T-47D,30.9%
"CN(C)c1ccc(/C=N/Nc2nc(N/N=C/c3ccc(N(C)C)cc3)nc(N3CCOCC3)n2)cc1 [compound 6g, 4-[(1e)-(2-{4-[(E)-2-{[4-(dimethylamino)phenyl]methylidene}hydrazin-1-yl]-6-(morpholin-4-yl)-1,3,5-triazin-2-yl}hydrazin-1-ylidene)methyl]-N,N-dimethylaniline]",inhibition at 10 µM,K-562; [1],93.7%
same,inhibition at 10 µM,SR; [2],113%
same,inhibition at 10 µM,EKVX; [3],4.62%
same,inhibition at 10 µM,HCC-2998,-2.9%
same,inhibition at 10 µM,HOP-62,-5.52%
same,inhibition at 10 µM,HS 578T; [4],2.43%
same,inhibition at 10 µM,KM 12,-3.9%
same,inhibition at 10 µM,NCI-H226,6.53%
same,inhibition at 10 µM,NCI-H460,83.3%
same,inhibition at 10 µM,OVCAR-3; [5],-9.22%
same,inhibition at 10 µM,OVCAR-4; [6],-3.79%
same,inhibition at 10 µM,OVCAR-5; [7],-10.4%
same,inhibition at 10 µM,OVCAR-8; [8],1.04%
same,inhibition at 10 µM,PC-3; [9],12.3%
same,inhibition at 10 µM,SK-OV-3; [10],-9.91%
same,inhibition at 10 µM,SNB-19,8.7%
same,inhibition at 10 µM,TK-10; [11],-10.2%
same,inhibition at 10 µM,U251,55.7%
same,inhibition at 10 µM,COLO 205; [12],-8.37%
same,inhibition at 10 µM,HCT-116; [13],64.3%
same,inhibition at 10 µM,SF-295; [14],86.2%
same,inhibition at 10 µM,LOX IMVI; [15],12.3%
same,inhibition at 10 µM,SK-MEL-2; [16],1.45%
same,inhibition at 10 µM,UACC-257; [17],-2.69%
same,inhibition at 10 µM,IGROV1; [18],5.41%
same,inhibition at 10 µM,ACHN; [19],-4.23%
same,inhibition at 10 µM,SN 12C; [20],10.8%
same,inhibition at 10 µM,T-47D; [21],5.31%
"Clc1cccc(/C=N/Nc2nc(N/N=C/c3cccc(Cl)c3Cl)nc(N3CCOCC3)n2)c1Cl [compound 6h, 2,4-Bis[(E)-2-[(2,3-Dichlorophenyl)methylidene]hydrazin-1-yl]-6-(morpholin-4-yl)-1,3,5-triazine]",inhibition at 10 µM,K-562; [1],38.6%
same,inhibition at 10 µM,SR; [2],51.9%
same,inhibition at 10 µM,EKVX; [3],24.4%
same,inhibition at 10 µM,HCC-2998,-6.13%
same,inhibition at 10 µM,HOP-62,-3.7%
same,inhibition at 10 µM,HS 578T; [4],-8.95%
same,inhibition at 10 µM,KM 12,8.19%
same,inhibition at 10 µM,NCI-H226,14.6%
same,inhibition at 10 µM,NCI-H460,-0.07%
same,inhibition at 10 µM,OVCAR-3; [5],-2.72%
same,inhibition at 10 µM,OVCAR-4; [6],3.18%
same,inhibition at 10 µM,OVCAR-5; [7],-10.2%
same,inhibition at 10 µM,OVCAR-8; [8],44.6%
same,inhibition at 10 µM,PC-3; [9],14.5%
same,inhibition at 10 µM,SK-OV-3; [10],-15.1%
same,inhibition at 10 µM,SNB-19,12.3%
same,inhibition at 10 µM,TK-10; [11],-29.2%
same,inhibition at 10 µM,U251,21%
same,inhibition at 10 µM,COLO 205; [12],7.98%
same,inhibition at 10 µM,HCT-116; [13],19.3%
same,inhibition at 10 µM,SF-295; [14],18%
same,inhibition at 10 µM,LOX IMVI; [15],31.6%
same,inhibition at 10 µM,SK-MEL-2; [16],13.8%
same,inhibition at 10 µM,UACC-257; [17],-9.57%
same,inhibition at 10 µM,IGROV1; [18],11.2%
same,inhibition at 10 µM,ACHN; [19],-7.98%
same,inhibition at 10 µM,SN 12C; [20],20.2%
same,inhibition at 10 µM,T-47D; [21],44.7%
